# Assay results: PMC11165727, “Improvement effects of a novel Chinese herbal formula in imiquimod and IL-23-stimulated mouse models of psoriasis” (Chinese Medicine, 2024)
# Assays:
# [1] = Pharmacokinetics of ISDF in rats: baicalin in plasma; format: in vivo, Sprague–Dawley rats; conditions: oral ISDF 18.90 g/kg
# Description: The rats were split into two groups, with 6 animals each: (a) an untreated control group, and (b) a group that received ISDF at a dosage of 18.90 g/kg. The rats were fasted overnight but had access to distilled water. Blood samples, around 0.4 mL, were harvested from the orbital bleeding while they were under anaesthesia with isoflurane. The blood samples were collected at several time points (5, 15, 30, 60, 120, 240, 480, and 1440 min) after the oral administration of ISDF to the rats. The blood was then centrifuged at 5000 rpm for 20 min (at 4 °C) to separate the plasma (upper) and blood cells (lower). The plasma (0.2 mL) was added with […] KH2PO4 (0.2 mL) and 1 mL methanol and acetonitrile (1:1) and vortexed for 10 min to precipitate protein, and then centrifugated at 10,000 rpm for five min to collect the supernatant. The supernatant was filtered, dried under nitrogen and then re-dissolved in methanol (0.2 mL) and stored at 4 °C [18]. The HPLC method was used to identify and quantify baicalin in plasma and berberine in erythrocytes, as previously published. All the data were shown as mean ± SEM. One-way ANOVA followed by the Bonferroni test was performed using GraphPad Prism v9.0. Statistical significance between experimental groups was considered when p < 0.05. The pharmacokinetics profile of ISDF was calculated using Drug and Statistics (DAS, China) software v2.0.
# [2] = Pharmacokinetics of ISDF in rats: berberine in erythrocytes; format: in vivo, Sprague–Dawley rats; conditions: oral ISDF 18.90 g/kg
# Description: The rats were split into two groups, with 6 animals each: (a) an untreated control group, and (b) a group that received ISDF at a dosage of 18.90 g/kg. The rats were fasted overnight but had access to distilled water. Blood samples, around 0.4 mL, were harvested from the orbital bleeding while they were under anaesthesia with isoflurane. The blood samples were collected at several time points (5, 15, 30, 60, 120, 240, 480, and 1440 min) after the oral administration of ISDF to the rats. The blood was then centrifuged at 5000 rpm for 20 min (at 4 °C) to separate the plasma (upper) and blood cells (lower). The blood cells were washed thrice with cold 0.9% saline, and then centrifuged at 3500 rpm for five min. The resulting erythrocytes were suspended in cold 0.9% saline (0.5 mL). Afterwards, the erythrocytes were mixed with an equal volume of 15% hydrochloric acid and heated at 60 ℃ for 6 h. They were then centrifugated at 12,000 rpm for 10 min to collect the supernatant, which was filtered and dried under nitrogen. Finally, it was re-dissolved with 0.2 mL methanol. The HPLC method was used to identify and quantify baicalin in plasma and berberine in erythrocytes, as previously published. All the data were shown as mean ± SEM. One-way ANOVA followed by the Bonferroni test was performed using GraphPad Prism v9.0. Statistical significance between experimental groups was considered when p < 0.05. The pharmacokinetics profile of ISDF was calculated using Drug and Statistics (DAS, China) software v2.0.
# IL-17A, IL-22, IL-23 = test: ELISA of cytokines in serum and injected skin of IL-23-induced mice; format: in vivo, C57 mice; conditions: IL-23 model; DXM 3 mg/kg oral; vs IL-23 group
# Description: (§1) A total of 48 C57 mice were randomly assigned to: (a) NC group; (b) IL-23 group; (c) IL-23 plus DXM (3 mg/kg) group; and (d–f) IL-23 plus ISDF (3.15, 6.30 and 9.45 g/kg) groups. Firstly, mice were pre-treated with ISDF or DXM before IL-23 injection. 0.5% CMC-Na was used to suspend ISDF and DXM which were orally given to mice once daily for two weeks, and the mice in the NC group and the IL-23 group were treated with only the vehicle for two weeks. The IL-23 administration was initiated 7 days post the first ISDF/DXM treatment. From day 8, mice concurrently orally received with ISDF/DXM treatment and intradermal injections of recombinant mouse IL-23 (Biolegend, USA) in two locations on the shaved dorsal skin at 1 μg/mouse/day using a 30-gauge needle for seven days. Sterile saline was used as the vehicle control for the NC group. After the seven-day sensitization of IL-23, the psoriasis symptoms appeared on the dorsal area of the mice. The weight of the mice and their dorsal skin thickness was monitored (on day 1, 7, and 14). On the last day, the scoring of the skin psoriasis severity was determined according to PASI after the last drug treatment (Fig. 2A).
# (§2) After the last drug treatment, blood samples were harvested and stored at room temperature for one hour, and then centrifuged at 3500 rpm for 20 min. The ELISA kits were used to collect the supernatant and determine the contents of IL-17A (ab199081), IL-22 (ab223857), IL-6 (ab222503) (Abcam, USA) and IL-23 (BMS6017, Thermo Fisher Scientific, USA). After being sacrificed, mouse skin tissues were collected, homogenized with cell extract buffer from Abcam, USA, and centrifuged at 12,000 rpm for 30 min (at 4 °C). The skin samples were analyzed for total protein contents using a […] assay kit. The concentrations of IL-4, IL-17A, IL-22 and IL-23 in the supernatant were determined.
# [3] = system: IL-17A, IL-22, IL-6, IL-4; test: ELISA of inflammatory cytokines in serum and dorsal skin of IMQ-induced mice; format: in vivo, Balb/c mice; conditions: IMQ model; DXM 3 mg/kg oral; vs IMQ group
# Description: (§3) A total of 48 Balb/c mice were randomly assigned to: (a) normal control group (NC); (b) IMQ group; (c) IMQ plus dexamethasone (DXM, as the positive control, 3 mg/kg) group; and (d-f) IMQ plus ISDF (3.15, 6.30 and 9.45 g/kg) groups. All mice, except the NC group, were topically dosed with 62.5 mg Aldara (iNova pharmaceuticals, Australia) daily on the shaved dorsal skin. After the seven-day sensitization of IMQ, the psoriasis symptoms appeared on the dorsal area. Between day 8 and day 22, Aldara cream was applied once every three days for a total of six applications, with each application consisting of 62.5 mg of the cream being applied to the same area. ISDF and DXM were suspended in 0.5% CMC-Na and orally given to the mice once daily for two weeks. Treatments were initiated seven days after the first IMQ sensitization. The mice in the NC group and the IMQ group were administered with only the vehicle for two weeks. (Fig. 1A).
# as §2
# [4] = system: gene expression of IL-4, IL-6, IL-1β and TNF-α; test: Real-time PCR on dorsal skin tissues of IMQ-induced mice; format: in vivo, Balb/c mice; conditions: IMQ model; DXM 3 mg/kg oral
# Description: as §3
# The same experimental procedure was used as described in our previous study. In the present study, we conducted Mouse TaqMan gene expression assays using the following assay IDs: IL-4 (Mm00445259_m1), IL-6 (Mm00446190_m1), IL-1β (Mm00434228_m1), TNF-α (Mm00443258_m1) and β-actin (Mm02619580_g1).
# [5] = system: IMQ-induced mouse psoriasis model; test: IMQ-induced mouse psoriasis model: body weight, dorsal skin thickness, PASI, epidermal thickness; format: in vivo, Balb/c mice
# Description: as §3
# (§4) The severity of psoriatic lesions on the dorsal area of mice was assessed by psoriasis area and severity index (PASI). The researcher scored the degree of erythema and skin scaling on a scale of zero to four, where 0: no symptoms, 1: slight, 2: moderate, 3: severe, and 4: very severe. The dorsal skin thickness was measured using an electronic vernier caliper which was placed on the middle line of the dorsal area.
# (§5) The dorsal skin tissues were harvested and fixed in 4% paraformaldehyde (PFA) for one day and then embedded in paraffin, followed by section, deparaffinization and rehydration. Five-micrometre sections of dorsal skin were stained with hematoxylin & eosin and observed through a light microscope (Zeiss AxioObserver Z1, Germany) to assess histopathological changes.
# [6] = system: IL-23-induced mouse psoriasis model; test: IL-23-induced mouse psoriasis model: body weight, dorsal skin thickness, PASI, epidermal thickness; format: in vivo, C57 mice; conditions: IL-23 model, DXM 3 mg/kg oral
# Description: as §1, §4, §5
# [7] = Sprague-Dawley, rat, 18.9 g/kg, read-out: Area under the curve (AUC0-∞)
# [8] = Sprague-Dawley, rat, 18.9 g/kg, read-out: Mean residence time (MRT0-t)
# [9] = Sprague-Dawley, rat, 18.9 g/kg, read-out: The maximum concentration (Cmax)
smiles,measurement,setting,value
"O=C(O)[C@H]1O[C@@H](Oc2cc3oc(-c4ccccc4)cc(=O)c3c(O)c2O)[C@H](O)[C@@H](O)[C@@H]1O [Baicalin, baicalin]",AUC(0-inf),[1]; [7],10000 ± 810 ng·h/mL
same,MRT last,[1]; [8],7.98 ± 0.61 h
same,Cmax,[1]; [9],670 ± 60 ng/mL
same,The time required for drug concentration to decrease by 50% (t1/2),[1],14.06 ± 3.25 h
same,Time to reach Cmax (Tmax),[1],2.01 ± 0.28 h
"COc1ccc2cc3[n+](cc2c1OC)CCc1cc2c(cc1-3)OCO2 [Berberine, berberine]",AUC(0-inf),[2]; [7],24200 ± 17400 ng·h/mL
same,MRT last,[2]; [8],9.24 ± 1.31 h
same,Cmax,[2]; [9],1440 ± 710 ng/mL
same,The time required for drug concentration to decrease by 50% (t1/2),[2],10.77 ± 5.80 h
same,Time to reach Cmax (Tmax),[2],2.33 ± 1.52 h
"C[C@@H]1C[C@H]2[C@@H]3CCC4=CC(=O)C=C[C@]4(C)[C@@]3(F)[C@@H](O)C[C@]2(C)[C@@]1(O)C(=O)CO [DXM, dexamethasone]",Decrease of IL-23 level in the injected skin,"IL-17A, IL-22, IL-23",43.34%
same,Reduction of serum IL-17A,"IL-17A, IL-22, IL-23",62.20%
same,Reduction of serum IL-22 content,"IL-17A, IL-22, IL-23",39.12%
same,Decrease of serum IL-17A,[3],91.29%
same,Reduction of IL-17A content in dorsal skin,[3],75.98%
same,Reduction of serum IL-6,[3],88.91%
same,Reduction of serum IL-22,[3],67.47%
same,"Gene expression of IL-4, IL-6, IL-1β and TNF-α in skin",[4],substantially down-regulate
same,Body weight,"[5]; DXM 3 mg/kg oral once daily, days 14 and 21, vs NC group",remarkable decrease
same,Decrease in PASI score,"[5]; DXM 3 mg/kg oral, day 21, vs IMQ group",79.41%
same,Reduction of dorsal skin thickness,"[5]; DXM 3 mg/kg oral, two-week treatment, vs IMQ group",51.69%
same,Decrease of epidermal thickness,"[5]; DXM 3 mg/kg oral, vs IMQ group",52.75%
same,Body weight,[6],significantly induced a body weight reduction
same,Decrease of dorsal skin thickness,"[6]; day 14, vs IL-23 group",55.14%
same,Reduction of PASI score,"[6]; day 14, vs IL-23 group",85.24%
same,Decrease of epidermal thickness,[6]; vs IL-23 group,72.26%
